In ChEMBL document CHEMBL4507275, “Data for DCP probe BI-2545” (2021):

Key:
[1] = biological target: Mast/stem cell growth factor receptor Kit (Homo sapiens) (UniProt P10721); details: Compound concentration 1000.0 nM
[2] = biological target: Serine/threonine-protein kinase WNK4 (Homo sapiens) (UniProt Q96J92); details: Compound concentration 1000.0 nM
[3] = biological target: Protein kinase C theta type (Homo sapiens) (UniProt Q04759); details: Compound concentration 1000.0 nM
[4] = biological target: Mitogen-activated protein kinase kinase kinase 11 (Homo sapiens) (UniProt Q16584); details: Compound concentration 1000.0 nM
[5] = biological target: Mitogen-activated protein kinase kinase kinase 12 (Homo sapiens) (UniProt Q12852); details: Compound concentration 1000.0 nM
[6] = biological target: Serine/threonine-protein kinase MRCK gamma (Homo sapiens) (UniProt Q6DT37); details: Compound concentration 1000.0 nM
[7] = biological target: Citron Rho-interacting kinase (Homo sapiens) (UniProt O14578); details: Compound concentration 1000.0 nM
[8] = test system: Mast/stem cell growth factor receptor Kit (Homo sapiens), P10721 [D816H]; details: Compound concentration 1000.0 nM
Mast/stem cell growth factor receptor Kit (Homo sapiens), P10721 [D816H], sequence (P10721 whole entry D816H): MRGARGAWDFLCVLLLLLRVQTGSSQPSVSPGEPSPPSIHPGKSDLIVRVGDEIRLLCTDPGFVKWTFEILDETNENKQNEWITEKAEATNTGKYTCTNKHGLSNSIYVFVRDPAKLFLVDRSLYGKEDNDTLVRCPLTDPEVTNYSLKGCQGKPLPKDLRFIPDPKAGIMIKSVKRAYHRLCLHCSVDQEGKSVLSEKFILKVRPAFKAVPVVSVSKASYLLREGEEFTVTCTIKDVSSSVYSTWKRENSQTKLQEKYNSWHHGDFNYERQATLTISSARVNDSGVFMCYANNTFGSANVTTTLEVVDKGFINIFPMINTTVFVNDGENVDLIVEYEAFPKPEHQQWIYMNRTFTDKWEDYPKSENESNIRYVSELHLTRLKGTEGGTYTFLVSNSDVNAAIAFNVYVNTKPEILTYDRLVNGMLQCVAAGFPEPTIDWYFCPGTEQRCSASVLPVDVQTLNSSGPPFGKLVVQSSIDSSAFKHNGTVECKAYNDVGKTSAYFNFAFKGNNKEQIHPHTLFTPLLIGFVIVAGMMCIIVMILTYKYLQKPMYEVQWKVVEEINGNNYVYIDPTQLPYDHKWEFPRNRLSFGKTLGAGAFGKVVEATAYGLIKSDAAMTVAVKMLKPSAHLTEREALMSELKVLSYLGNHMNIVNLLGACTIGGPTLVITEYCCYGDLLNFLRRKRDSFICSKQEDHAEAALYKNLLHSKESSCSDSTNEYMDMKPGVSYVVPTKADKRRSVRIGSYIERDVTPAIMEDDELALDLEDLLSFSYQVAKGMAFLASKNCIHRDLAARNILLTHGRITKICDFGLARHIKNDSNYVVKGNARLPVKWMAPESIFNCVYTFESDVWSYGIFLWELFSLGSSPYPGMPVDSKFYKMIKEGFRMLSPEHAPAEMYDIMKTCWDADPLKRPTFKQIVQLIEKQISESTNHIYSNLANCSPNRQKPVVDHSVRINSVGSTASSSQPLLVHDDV

[9] = biological target: Mast/stem cell growth factor receptor Kit (Homo sapiens) (UniProt P10721); details: Compound concentration 1000.0 nM; remark: listed apart in the source
[10] = biological target: Myosin light chain kinase 2, skeletal/cardiac muscle (Homo sapiens) (UniProt Q9H1R3); details: Compound concentration 1000.0 nM
Myosin light chain kinase 2, skeletal/cardiac muscle (Homo sapiens), sequence (Q9H1R3 whole entry): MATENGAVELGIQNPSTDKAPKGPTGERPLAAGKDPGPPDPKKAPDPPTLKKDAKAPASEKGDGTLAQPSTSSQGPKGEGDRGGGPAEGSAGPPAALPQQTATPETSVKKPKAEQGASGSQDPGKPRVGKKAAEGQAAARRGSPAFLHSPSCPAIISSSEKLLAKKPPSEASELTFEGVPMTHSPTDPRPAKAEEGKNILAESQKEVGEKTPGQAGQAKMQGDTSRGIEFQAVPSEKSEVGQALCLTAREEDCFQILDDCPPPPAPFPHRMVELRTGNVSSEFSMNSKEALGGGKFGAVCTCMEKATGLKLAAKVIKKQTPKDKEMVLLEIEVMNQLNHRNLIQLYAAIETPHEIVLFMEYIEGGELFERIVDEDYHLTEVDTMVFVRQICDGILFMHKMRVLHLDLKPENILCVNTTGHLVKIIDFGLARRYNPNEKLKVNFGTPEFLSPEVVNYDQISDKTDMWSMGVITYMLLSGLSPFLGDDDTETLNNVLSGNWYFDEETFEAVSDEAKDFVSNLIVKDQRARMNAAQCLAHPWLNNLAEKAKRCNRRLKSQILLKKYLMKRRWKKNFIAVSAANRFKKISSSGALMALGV

[11] = biological target: Serine/threonine-protein kinase OSR1 (Homo sapiens) (UniProt O95747); details: Compound concentration 1000.0 nM
[12] = biological target: Wee1-like protein kinase 2 (Homo sapiens) (UniProt P0C1S8); details: Compound concentration 1000.0 nM
[13] = biological target: Tyrosine-protein kinase FRK (Homo sapiens) (UniProt P42685); details: Compound concentration 1000.0 nM
Tyrosine-protein kinase FRK (Homo sapiens), sequence (P42685 whole entry): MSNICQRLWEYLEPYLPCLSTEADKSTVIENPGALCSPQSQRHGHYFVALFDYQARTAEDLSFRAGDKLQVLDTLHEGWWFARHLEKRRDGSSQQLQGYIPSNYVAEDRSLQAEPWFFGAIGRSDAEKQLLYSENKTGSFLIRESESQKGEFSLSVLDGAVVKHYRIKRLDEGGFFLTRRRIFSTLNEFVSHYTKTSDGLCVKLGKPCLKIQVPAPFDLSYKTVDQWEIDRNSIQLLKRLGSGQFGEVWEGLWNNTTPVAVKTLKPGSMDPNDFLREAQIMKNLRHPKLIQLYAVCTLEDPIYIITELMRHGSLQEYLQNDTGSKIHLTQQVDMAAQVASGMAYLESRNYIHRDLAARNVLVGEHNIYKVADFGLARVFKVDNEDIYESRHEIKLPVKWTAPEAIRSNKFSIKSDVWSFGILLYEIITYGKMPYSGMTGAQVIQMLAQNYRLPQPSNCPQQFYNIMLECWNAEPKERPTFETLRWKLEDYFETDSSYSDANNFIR

[14] = biological target: Protein kinase C iota type (Homo sapiens) (UniProt P41743); details: Compound concentration 1000.0 nM
[15] = biological target: 5-hydroxytryptamine receptor 7 (Homo sapiens) (UniProt P34969); details: Compound concentration 10.0 uM
[16] = test system: Receptor-type tyrosine-protein kinase FLT3 (Homo sapiens), P36888 [D835V]; details: Compound concentration 1000.0 nM
[17] = biological target: Phosphatidylinositol 5-phosphate 4-kinase type-2 gamma (Homo sapiens) (UniProt Q8TBX8); details: Compound concentration 1000.0 nM
[18] = biological target: Tyrosine-protein kinase receptor Tie-1 (Homo sapiens) (UniProt P35590); details: Compound concentration 1000.0 nM
[19] = biological target: Mitogen-activated protein kinase kinase kinase 9 (Homo sapiens) (UniProt P80192); details: Compound concentration 1000.0 nM
[20] = biological target: Hormonally up-regulated neu tumor-associated kinase (Homo sapiens) (UniProt P57058); details: Compound concentration 1000.0 nM
[21] = biological target: Mitogen-activated protein kinase kinase kinase kinase 4 (Homo sapiens) (UniProt O95819); details: Compound concentration 1000.0 nM
[22] = biological target: Mitogen-activated protein kinase 7 (Homo sapiens) (UniProt Q13164); details: Compound concentration 1000.0 nM
[23] = biological target: Serine/threonine-protein kinase 32B (Homo sapiens) (UniProt Q9NY57); details: Compound concentration 1000.0 nM
[24] = biological target: SRSF protein kinase 2 (Homo sapiens) (UniProt P78362); details: Compound concentration 1000.0 nM
[25] = biological target: Ephrin type-B receptor 6 (Homo sapiens) (UniProt O15197); details: Compound concentration 1000.0 nM
[26] = biological target: Cytoplasmic tyrosine-protein kinase BMX (Homo sapiens) (UniProt P51813); details: Compound concentration 1000.0 nM
[27] = biological target: Interleukin-1 receptor-associated kinase 1 (Homo sapiens) (UniProt P51617); details: Compound concentration 1000.0 nM
Interleukin-1 receptor-associated kinase 1 (Homo sapiens), sequence (P51617 whole entry, looked up): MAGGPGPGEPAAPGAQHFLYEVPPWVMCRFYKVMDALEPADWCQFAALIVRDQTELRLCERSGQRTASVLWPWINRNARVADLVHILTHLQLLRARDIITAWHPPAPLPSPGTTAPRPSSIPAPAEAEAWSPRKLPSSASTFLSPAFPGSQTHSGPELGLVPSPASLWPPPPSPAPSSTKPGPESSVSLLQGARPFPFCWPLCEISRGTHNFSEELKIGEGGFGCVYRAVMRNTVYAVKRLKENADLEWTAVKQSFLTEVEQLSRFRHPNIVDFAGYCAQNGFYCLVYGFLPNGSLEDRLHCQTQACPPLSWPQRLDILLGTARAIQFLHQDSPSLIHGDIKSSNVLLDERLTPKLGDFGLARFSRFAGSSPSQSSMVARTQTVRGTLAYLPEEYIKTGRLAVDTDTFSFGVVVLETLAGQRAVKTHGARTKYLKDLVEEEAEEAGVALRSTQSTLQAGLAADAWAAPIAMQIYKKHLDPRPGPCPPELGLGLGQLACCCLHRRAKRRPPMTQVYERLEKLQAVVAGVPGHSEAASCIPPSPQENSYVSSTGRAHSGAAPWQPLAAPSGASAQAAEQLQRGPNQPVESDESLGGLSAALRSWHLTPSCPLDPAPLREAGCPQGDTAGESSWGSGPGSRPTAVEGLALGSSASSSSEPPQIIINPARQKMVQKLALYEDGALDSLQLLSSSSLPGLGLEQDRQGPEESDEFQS

[28] = biological target: Serine/threonine-protein kinase Sgk3 (Homo sapiens) (UniProt Q96BR1); details: Compound concentration 1000.0 nM
[29] = biological target: cAMP-dependent protein kinase catalytic subunit beta (Homo sapiens) (UniProt P22694); details: Compound concentration 1000.0 nM
[30] = biological target: Serine/threonine-protein kinase N2 (Homo sapiens) (UniProt Q16513); details: Compound concentration 1000.0 nM
[31] = biological target: 5'-AMP-activated protein kinase catalytic subunit alpha-2 (Homo sapiens) (UniProt P54646); details: Compound concentration 1000.0 nM
[32] = biological target: Histamine H1 receptor (Homo sapiens) (UniProt P35367); details: Compound concentration 10.0 uM
Histamine H1 receptor (Homo sapiens), sequence (P35367 whole entry): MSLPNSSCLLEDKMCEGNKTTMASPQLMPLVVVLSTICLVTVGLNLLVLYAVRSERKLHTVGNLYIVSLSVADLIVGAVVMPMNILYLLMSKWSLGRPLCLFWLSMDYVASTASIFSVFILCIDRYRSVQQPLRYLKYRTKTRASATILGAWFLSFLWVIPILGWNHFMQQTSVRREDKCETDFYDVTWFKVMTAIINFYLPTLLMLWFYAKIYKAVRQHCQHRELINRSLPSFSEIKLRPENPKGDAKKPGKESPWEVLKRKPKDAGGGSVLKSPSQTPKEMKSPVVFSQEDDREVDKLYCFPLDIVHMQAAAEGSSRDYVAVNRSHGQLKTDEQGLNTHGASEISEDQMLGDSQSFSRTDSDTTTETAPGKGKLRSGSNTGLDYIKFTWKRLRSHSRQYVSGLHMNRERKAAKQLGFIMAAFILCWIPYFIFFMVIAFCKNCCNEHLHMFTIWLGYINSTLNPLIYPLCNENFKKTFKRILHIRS

[33] = biological target: T1, 5-hydroxytryptamine receptor 3A (Homo sapiens) (UniProt P46098); details: Compound concentration 10.0 uM
T1 sequence (whole entry): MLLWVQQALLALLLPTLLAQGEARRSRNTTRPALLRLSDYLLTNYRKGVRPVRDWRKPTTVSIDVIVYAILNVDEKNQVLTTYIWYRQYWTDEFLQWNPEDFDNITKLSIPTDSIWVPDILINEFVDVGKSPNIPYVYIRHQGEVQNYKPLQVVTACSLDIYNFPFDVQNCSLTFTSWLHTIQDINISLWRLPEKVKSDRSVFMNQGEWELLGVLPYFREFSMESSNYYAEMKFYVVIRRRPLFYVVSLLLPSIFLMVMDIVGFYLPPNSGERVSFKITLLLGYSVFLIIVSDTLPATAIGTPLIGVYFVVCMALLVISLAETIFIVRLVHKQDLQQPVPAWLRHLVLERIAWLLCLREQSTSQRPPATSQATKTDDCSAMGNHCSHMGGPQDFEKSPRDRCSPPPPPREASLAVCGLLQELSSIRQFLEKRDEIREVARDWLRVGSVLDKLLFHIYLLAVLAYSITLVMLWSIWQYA

[34] = biological target: Mitogen-activated protein kinase kinase kinase 1 (Homo sapiens) (UniProt Q13233); details: Compound concentration 1000.0 nM
Mitogen-activated protein kinase kinase kinase 1 (Homo sapiens), sequence (Q13233 whole entry): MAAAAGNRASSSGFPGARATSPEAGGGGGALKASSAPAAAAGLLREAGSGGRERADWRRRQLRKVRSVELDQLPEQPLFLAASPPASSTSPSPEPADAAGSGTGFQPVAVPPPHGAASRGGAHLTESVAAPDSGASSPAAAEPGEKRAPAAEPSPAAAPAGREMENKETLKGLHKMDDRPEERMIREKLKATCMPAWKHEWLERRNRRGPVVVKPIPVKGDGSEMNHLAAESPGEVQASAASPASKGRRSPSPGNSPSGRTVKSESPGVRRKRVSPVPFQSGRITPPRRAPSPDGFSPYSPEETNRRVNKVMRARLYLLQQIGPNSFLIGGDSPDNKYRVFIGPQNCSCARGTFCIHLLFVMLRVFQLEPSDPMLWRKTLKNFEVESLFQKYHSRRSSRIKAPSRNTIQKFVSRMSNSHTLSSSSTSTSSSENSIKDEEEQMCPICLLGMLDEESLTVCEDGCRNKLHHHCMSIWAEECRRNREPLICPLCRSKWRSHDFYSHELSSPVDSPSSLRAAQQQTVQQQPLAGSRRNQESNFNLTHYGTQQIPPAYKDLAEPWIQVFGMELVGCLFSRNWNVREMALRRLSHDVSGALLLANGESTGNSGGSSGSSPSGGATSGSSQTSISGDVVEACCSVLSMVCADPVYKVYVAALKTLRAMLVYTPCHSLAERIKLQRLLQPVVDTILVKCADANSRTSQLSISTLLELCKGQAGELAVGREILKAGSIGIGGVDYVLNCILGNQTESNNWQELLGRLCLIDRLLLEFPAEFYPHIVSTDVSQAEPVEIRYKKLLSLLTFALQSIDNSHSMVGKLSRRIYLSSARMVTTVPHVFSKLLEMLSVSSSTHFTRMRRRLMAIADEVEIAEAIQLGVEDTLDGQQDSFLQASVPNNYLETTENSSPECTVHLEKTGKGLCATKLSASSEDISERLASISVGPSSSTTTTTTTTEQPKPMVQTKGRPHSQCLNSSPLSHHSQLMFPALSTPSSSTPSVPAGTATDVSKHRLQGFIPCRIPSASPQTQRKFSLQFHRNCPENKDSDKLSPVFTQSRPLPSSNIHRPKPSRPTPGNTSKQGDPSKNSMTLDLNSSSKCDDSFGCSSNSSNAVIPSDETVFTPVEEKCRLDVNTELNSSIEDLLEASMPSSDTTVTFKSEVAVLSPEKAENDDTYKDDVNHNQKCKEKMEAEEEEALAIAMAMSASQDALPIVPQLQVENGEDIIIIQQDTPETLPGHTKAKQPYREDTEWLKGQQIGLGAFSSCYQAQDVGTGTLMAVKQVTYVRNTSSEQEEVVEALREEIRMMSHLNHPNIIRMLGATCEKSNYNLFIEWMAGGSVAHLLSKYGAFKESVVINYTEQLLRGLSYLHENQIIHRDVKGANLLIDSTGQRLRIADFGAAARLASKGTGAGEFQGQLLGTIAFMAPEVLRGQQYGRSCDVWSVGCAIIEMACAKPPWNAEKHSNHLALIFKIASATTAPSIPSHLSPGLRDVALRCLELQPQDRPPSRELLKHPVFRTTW

[35] = biological target: Serine/threonine-protein kinase 3 (Homo sapiens) (UniProt Q13188); details: Compound concentration 1000.0 nM
[36] = biological target: Macrophage colony-stimulating factor 1 receptor (Homo sapiens) (UniProt P07333); details: Compound concentration 1000.0 nM
[37] = test system: Tyrosine-protein kinase ABL1 (Homo sapiens), P00519 [Q252H]; details: Compound concentration 1000.0 nM
[38] = biological target: Cyclin-dependent kinase-like 1 (Homo sapiens) (UniProt Q00532); details: Compound concentration 1000.0 nM
[39] = biological target: D(1A) dopamine receptor (Homo sapiens) (UniProt P21728); details: Compound concentration 10.0 uM

Mast/stem cell growth factor receptor Kit (Homo sapiens), sequence (P10721 whole entry): as the sequence (P10721 whole entry D816H) above, with H816D counted along it

Cc1nccc(COC(=O)N2C[C@@H]3[C@@H](CNC(=O)c4ccc5[nH]nnc5c4)[C@@H]3C2)n1 [BI 3017]
inactive: residual activity [1] 79% | residual activity [2] 100% | residual activity [3] 91% | residual activity [4] 100% | residual activity [5] 72% | residual activity [6] 92% | residual activity [7] 100% | residual activity [8] 99% | residual activity [9] 89% | residual activity [10] 90% | residual activity [11] 100% | residual activity [12] 100% | residual activity [13] 100% | residual activity [14] 100% | inhibition [15] 9.56% | residual activity [16] 79% | residual activity [17] 100% | residual activity [18] 100% | residual activity [19] 89% | residual activity [20] 81% | residual activity [21] 99% | residual activity [22] 98% | residual activity [23] 97% | residual activity [24] 77% | residual activity [25] 99% | residual activity [26] 88% | residual activity [27] 81% | residual activity [28] 100% | residual activity [29] 98% | residual activity [30] 100% | residual activity [31] 97% | inhibition [32] 18.1% | inhibition [33] 16.4% | residual activity [34] 85% | residual activity [35] 97% | residual activity [36] 88% | residual activity [37] 100% | residual activity [38] 81% | inhibition [39] -9.63%

O=C(NC[C@@H]1[C@H]2CN(C(=O)OCc3cc(C(F)(F)F)cc(C(F)(F)F)c3)C[C@@H]12)c1ccc2[nH]nnc2c1 [BI 2545]
inactive: residual activity [1] 90% | residual activity [2] 89% | residual activity [3] 100% | residual activity [4] 99% | residual activity [5] 100% | residual activity [6] 90% | residual activity [7] 100% | residual activity [8] 100% | residual activity [9] 89% | residual activity [10] 97% | residual activity [11] 85% | residual activity [12] 93% | residual activity [13] 83% | residual activity [14] 98% | inhibition [15] 19% | residual activity [16] 100% | residual activity [17] 100% | residual activity [18] 77% | residual activity [19] 100% | residual activity [20] 100% | residual activity [21] 100% | residual activity [22] 100% | residual activity [23] 100% | residual activity [24] 100% | residual activity [25] 100% | residual activity [26] 81% | residual activity [27] 98% | residual activity [28] 84% | residual activity [29] 100% | residual activity [30] 93% | residual activity [31] 100% | inhibition [32] 12.8% | inhibition [33] 8.82% | residual activity [34] 71% | residual activity [35] 87% | residual activity [36] 99% | residual activity [37] 78% | residual activity [38] 84% | inhibition [39] 8.68%
